# Molecular target: T1, 5-hydroxytryptamine receptor 1A (Homo sapiens, UniProt P08908)
# T1 sequence (P08908 whole entry): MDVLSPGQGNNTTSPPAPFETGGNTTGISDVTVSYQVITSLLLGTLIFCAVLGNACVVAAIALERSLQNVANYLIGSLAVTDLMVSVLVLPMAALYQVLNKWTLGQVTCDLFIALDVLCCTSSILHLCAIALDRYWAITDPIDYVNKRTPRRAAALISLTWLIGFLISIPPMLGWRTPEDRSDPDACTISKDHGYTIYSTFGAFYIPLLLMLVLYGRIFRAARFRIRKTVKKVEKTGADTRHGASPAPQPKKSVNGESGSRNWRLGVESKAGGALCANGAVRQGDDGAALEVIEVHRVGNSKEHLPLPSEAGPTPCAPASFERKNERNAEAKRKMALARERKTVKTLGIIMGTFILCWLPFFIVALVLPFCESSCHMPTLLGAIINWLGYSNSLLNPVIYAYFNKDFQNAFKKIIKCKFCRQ
# Assay: Antagonist activity at 5HT1A
# Type: functional
row,SMILES,Ki [nM]
1,COc1ccccc1N1CCN(CCC(O)c2csc(C)c2)CC1 (centres undefined),372
2,COc1ccccc1N1CCN(CCC(=O)c2ccsc2)CC1,60.3
3,Cc1cc(C(O)CCN2CCN(c3ccccc3O)CC2)c(C)s1 (centres undefined),89.1
4,OC(CCN1CCN(c2cccc3ccccc23)CC1)c1csc2ccccc12 (centres undefined),66.1
5,OC(CCN1CCN(c2cnc3ccccc3c2)CC1)c1csc2ccccc12 (centres undefined),1000
6,COc1ccccc1N1CCN(CCC(Oc2cccc3ccccc23)c2ccsc2)CC1 (centres undefined),182
7,OC(CCN1CCN(c2ncccn2)CC1)c1ccccc1 (centres undefined),372
8,COc1ccc(OC(CCN2CCN(c3ccccc3OC)CC2)c2ccccc2)cc1 (centres undefined),89.1
9,OC(CCN1CCN(c2ccccc2Cl)CC1)c1ccsc1 (centres undefined),5010
10,COc1ccccc1N1CCN(CCC(=O)c2cc(C)sc2C)CC1,5010
11,COc1ccccc1N1CCN(CCC(O)c2ccc(-c3ccccc3)cc2)CC1 (centres undefined),851
12,FC(F)(F)c1ccc(OC(CCN2CCN(c3ccc(Cl)cc3)CC2)c2ccccc2)cc1 (centres undefined),5010
13,COc1ccccc1N1CCN(CCC(Oc2ccc3c(c2)OCO3)c2ccsc2)CC1 (centres undefined),55
14,OC(CCN1CCN(c2ccc(F)cc2)CC1)c1ccccc1 (centres undefined),145
15,OC(CCN1CCN(c2ccc3ncccc3c2)CC1)c1csc2ccccc12 (centres undefined),550
16,Oc1ccccc1N1CCN(CCC(O)c2ccc3ccccc3c2)CC1 (centres undefined),191
17,COc1ccccc1N1CCN(CCC(Oc2cccc3ccccc23)c2cccs2)CC1 (centres undefined),219
18,O=C(CCN1CCN(c2ccccc2O)CC1)c1ccc2ccccc2c1,1000
19,OC(CCN1CCN(c2ccc3sccc3c2)CC1)c1csc2ccccc12 (centres undefined),1580
20,OC(CCN1CCN(c2cccc3cccnc23)CC1)c1csc2ccccc12 (centres undefined),550
21,COc1ccccc1N1CCN(CC/C(=N\O)c2csc3ccccc23)CC1,794
22,Cc1cc(C(=O)CCN2CCN(c3cccc4ccccc34)CC2)c(C)s1,5010

# The next compounds have a lower Ki than those just listed; values first:
row,Ki [nM],SMILES
1,50.1,COc1ccccc1N1CCN(CCC(=O)c2ccc([N+](=O)[O-])cc2)CC1
2,37.2,OC(CCN1CCN(c2cccc3ncccc23)CC1)c1csc2ccccc12 (centres undefined)
3,20,COc1ccccc1N1CCN(CCC(Oc2ccc3c(c2)OCO3)c2ccccc2)CC1 (centres undefined)
4,12.9,COc1cc(F)ccc1N1CCN(CCC(=O)c2cc(C)sc2C)CC1
5,10.2,Cc1ccc2cccc(N3CCN(CCC(O)c4csc5ccccc45)CC3)c2n1 (centres undefined)
6,10,COc1ccccc1N1CCN(CCC(O)c2ccc([N+](=O)[O-])cc2)CC1 (centres undefined)
7,9.33,CC1CN(CCC(O)c2csc3ccc(F)cc23)CCN1c1cccc2c1OCO2 (centres undefined)
8,6.03,OC(CCN1CCN(c2cccc3c2OCCO3)CC1)c1csc2ccc(F)cc12 (centres undefined)
9,3.02,OC(CCN1CCN(c2cccc3c2OCCCO3)CC1)c1csc2ccc(F)cc12 (centres undefined)
10,2.69,OC(CCN1CCN(c2cccc3cccnc23)CC1)c1csc2ccc(F)cc12 (centres undefined)
11,2.51,Cc1ccc2cccc(N3CCN(CCC(O)c4csc5ccc(F)cc45)CC3)c2n1 (centres undefined)
12,1.91,OC(CCN1CCN(c2cccc3c2OCCCO3)CC1)c1csc2ccccc12 (centres undefined)

# From ChEMBL document CHEMBL1157053, “Pharmacophore-based 3D QSAR studies on a series of high affinity 5-HT1A receptor ligands” (Eur J Med Chem, 2010)
